Results taken from PubChem BioAssay (NCI).
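Step 1: Grow cells in 96-well plates. Step 2: Expose to compound for 48 hours at 5 concentrations. Step 3: Interpolate endpoints linearly; if unreached, use highest concentration. TGI is the concentration that stops growth completely.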

Experiments:
Test in all cases: NCI tumour cell line growth inhibition, 48 h
786-0 renal = test system: 786-0 renal
A498 renal = test system: A498 renal
A549 NSCLC = test system: A549 NSCLC
ACHN renal = test system: ACHN renal
CCRF-CEM leukemia = test system: CCRF-CEM leukemia
COLO 205 colon = test system: COLO 205 colon
DLD-1 colon = test system: DLD-1 colon
DMS 114 small cell lung = test system: DMS 114 small cell lung
DMS 273 small cell lung = test system: DMS 273 small cell lung
EKVX NSCLC = test system: EKVX NSCLC
HCC-2998 colon = test system: HCC-2998 colon
HCT-116 colon = test system: HCT-116 colon
HCT-15 colon = test system: HCT-15 colon
HL-60(TB) leukemia = test system: HL-60(TB) leukemia
HOP-18 NSCLC = test system: HOP-18 NSCLC
HOP-62 NSCLC = test system: HOP-62 NSCLC
HOP-92 NSCLC = test system: HOP-92 NSCLC
HT29 colon = test system: HT29 colon
IGROV1 ovarian = test system: IGROV1 ovarian
K-562 leukemia = test system: K-562 leukemia
KM12 colon = test system: KM12 colon
KM20L2 colon = test system: KM20L2 colon
LOX IMVI melanoma = test system: LOX IMVI melanoma
LXFL 529 NSCLC = test system: LXFL 529 NSCLC
M14 melanoma = test system: M14 melanoma
M19-MEL melanoma = test system: M19-MEL melanoma
MALME-3M melanoma = test system: MALME-3M melanoma
MOLT-4 leukemia = test system: MOLT-4 leukemia
NCI-H226 lung = test system: NCI-H226 lung
NCI-H23 lung = test system: NCI-H23 lung
NCI-H460 lung = test system: NCI-H460 lung
NCI-H522 lung = test system: NCI-H522 lung
OVCAR-3 ovarian = test system: OVCAR-3 ovarian
OVCAR-4 ovarian = test system: OVCAR-4 ovarian
OVCAR-5 ovarian = test system: OVCAR-5 ovarian
OVCAR-8 ovarian = test system: OVCAR-8 ovarian
RPMI-8226 leukemia = test system: RPMI-8226 leukemia
RXF 393 renal = test system: RXF 393 renal
RXF-631 renal = test system: RXF-631 renal
SF-268 CNS = test system: SF-268 CNS
SF-295 CNS = test system: SF-295 CNS
SF-539 CNS = test system: SF-539 CNS
SK-MEL-28 melanoma = test system: SK-MEL-28 melanoma
SK-MEL-5 melanoma = test system: SK-MEL-5 melanoma
SK-OV-3 ovarian = test system: SK-OV-3 ovarian
SN12C renal = test system: SN12C renal
SNB-19 CNS = test system: SNB-19 CNS
SNB-75 CNS = test system: SNB-75 CNS
SNB-78 CNS = test system: SNB-78 CNS
SR leukemia = test system: SR leukemia
SW-620 colon = test system: SW-620 colon
TK-10 renal = test system: TK-10 renal
U251 CNS = test system: U251 CNS
UACC-257 melanoma = test system: UACC-257 melanoma
UACC-62 melanoma = test system: UACC-62 melanoma
UO-31 renal = test system: UO-31 renal
XF 498 CNS = test system: XF 498 CNS
CAKI-1 renal = test system: CAKI-1 renal
MCF7 breast = test system: MCF7 breast
NCI/ADR-RES ovarian = test system: NCI/ADR-RES ovarian
P388 leukemia = test system: P388 leukemia
SK-MEL-2 melanoma = test system: SK-MEL-2 melanoma
SN12K1 renal = test system: SN12K1 renal

## O=S1OC(c2ccccc2)(c2ccccc2)C(c2ccccc2)(c2ccccc2)O1
786-0 renal
  TGI: > 100 µM
A498 renal
  TGI: > 100 µM
A549 NSCLC
  TGI: > 100 µM
ACHN renal
  TGI: > 100 µM
CCRF-CEM leukemia
  TGI: > 100 µM
COLO 205 colon
  TGI: > 100 µM
DLD-1 colon
  TGI: > 100 µM
DMS 114 small cell lung
  TGI: > 100 µM
DMS 273 small cell lung
  TGI: > 100 µM
EKVX NSCLC
  TGI: > 100 µM
HCC-2998 colon
  TGI: > 100 µM
HCT-116 colon
  TGI: > 100 µM
HCT-15 colon
  TGI: > 100 µM
HL-60(TB) leukemia
  TGI: > 100 µM
HOP-18 NSCLC
  TGI: > 100 µM
HOP-62 NSCLC
  TGI: > 100 µM
HOP-92 NSCLC
  TGI: > 100 µM
HT29 colon
  TGI: > 100 µM
IGROV1 ovarian
  TGI: > 100 µM
K-562 leukemia
  TGI: > 100 µM
KM12 colon
  TGI: > 100 µM
KM20L2 colon
  TGI: > 100 µM
LOX IMVI melanoma
  TGI: > 100 µM
LXFL 529 NSCLC
  TGI: > 100 µM
M14 melanoma
  TGI: > 100 µM
M19-MEL melanoma
  TGI: > 100 µM
MALME-3M melanoma
  TGI: > 100 µM
MOLT-4 leukemia
  TGI: > 100 µM
NCI-H226 lung
  TGI: > 100 µM
NCI-H23 lung
  TGI: > 100 µM
NCI-H460 lung
  TGI: > 100 µM
NCI-H522 lung
  TGI: > 100 µM
OVCAR-3 ovarian
  TGI: > 100 µM
OVCAR-4 ovarian
  TGI: > 100 µM
OVCAR-5 ovarian
  TGI: > 100 µM
OVCAR-8 ovarian
  TGI: > 100 µM
RPMI-8226 leukemia
  TGI: > 49.4 µM
RXF 393 renal
  TGI: > 100 µM
RXF-631 renal
  TGI: > 100 µM
SF-268 CNS
  TGI: > 100 µM
SF-295 CNS
  TGI: > 100 µM
SF-539 CNS
  TGI: > 100 µM
SK-MEL-28 melanoma
  TGI: > 100 µM
SK-MEL-5 melanoma
  TGI: > 100 µM
SK-OV-3 ovarian
  TGI: > 100 µM
SN12C renal
  TGI: > 100 µM
SNB-19 CNS
  TGI: > 100 µM
SNB-75 CNS
  TGI: > 100 µM
SNB-78 CNS
  TGI: > 100 µM
SR leukemia
  TGI: > 100 µM
SW-620 colon
  TGI: > 100 µM
TK-10 renal
  TGI: > 100 µM
U251 CNS
  TGI: > 100 µM
UACC-257 melanoma
  TGI: > 100 µM
UACC-62 melanoma
  TGI: > 100 µM
UO-31 renal
  TGI: > 100 µM
XF 498 CNS
  TGI: > 100 µM

## NCCCCCC(CCN)SCC1OC(n2cnc3c(N)ncnc32)C(O)C1O (configuration not stated)
A498 renal
  TGI: > 1500 µM
A549 NSCLC
  TGI: > 1500 µM
CAKI-1 renal
  TGI: 1270 µM
CCRF-CEM leukemia
  TGI: > 1500 µM
COLO 205 colon
  TGI: > 1500 µM
DLD-1 colon
  TGI: > 1500 µM
DMS 114 small cell lung
  TGI: > 1500 µM
DMS 273 small cell lung
  TGI: > 1090 µM
EKVX NSCLC
  TGI: > 1500 µM
HCC-2998 colon
  TGI: > 1500 µM
HCT-116 colon
  TGI: > 1500 µM
HCT-15 colon
  TGI: > 1500 µM
HL-60(TB) leukemia
  TGI: > 1500 µM
HOP-62 NSCLC
  TGI: > 1500 µM
HOP-92 NSCLC
  TGI: > 1240 µM
HT29 colon
  TGI: > 1500 µM
IGROV1 ovarian
  TGI: > 1500 µM
K-562 leukemia
  TGI: > 1500 µM
KM12 colon
  TGI: > 1500 µM
KM20L2 colon
  TGI: > 1500 µM
LOX IMVI melanoma
  TGI: > 1500 µM
M19-MEL melanoma
  TGI: > 1500 µM
MALME-3M melanoma
  TGI: > 1500 µM
MCF7 breast
  TGI: > 1500 µM
MOLT-4 leukemia
  TGI: > 1500 µM
NCI-H226 lung
  TGI: > 1500 µM
NCI-H23 lung
  TGI: > 1500 µM
NCI-H460 lung
  TGI: > 1500 µM
NCI-H522 lung
  TGI: > 1500 µM
NCI/ADR-RES ovarian
  TGI: > 1500 µM
OVCAR-3 ovarian
  TGI: > 1500 µM
OVCAR-4 ovarian
  TGI: > 1500 µM
OVCAR-5 ovarian
  TGI: > 1500 µM
OVCAR-8 ovarian
  TGI: > 1500 µM
P388 leukemia
  TGI: > 1500 µM
RPMI-8226 leukemia
  TGI: 1140 µM
RXF 393 renal
  TGI: > 1500 µM
SF-268 CNS
  TGI: > 1500 µM
SF-295 CNS
  TGI: > 1500 µM
SF-539 CNS
  TGI: > 1240 µM
SK-MEL-2 melanoma
  TGI: > 1500 µM
SK-MEL-28 melanoma
  TGI: > 1500 µM
SK-MEL-5 melanoma
  TGI: > 1500 µM
SK-OV-3 ovarian
  TGI: > 1500 µM
SN12C renal
  TGI: > 1180 µM
SN12K1 renal
  TGI: > 1500 µM
SNB-19 CNS
  TGI: > 1500 µM
SNB-75 CNS
  TGI: > 1500 µM
SNB-78 CNS
  TGI: > 1500 µM
SW-620 colon
  TGI: > 1500 µM
U251 CNS
  TGI: > 1500 µM
UACC-257 melanoma
  TGI: > 1500 µM
UACC-62 melanoma
  TGI: > 1500 µM
UO-31 renal
  TGI: > 1320 µM
XF 498 CNS
  TGI: > 15 µM
